Test results: patent publication US20090264289A1, “Use of Arylcarboxylic Acid Biphenylamides for Seed Treatment” (BASF SE, priority 2006, published 2009)

Columns and labels:
Assay type in all cases: in vivo
[1] = test system: Puccinia recondita; assay: Activity against Puccinia recondita on wheat (solution pipetted to seedlings in vermiculite); settings: inoculated 7 days after treatment, 7 days incubation, control 80
Description: (§1) Activity Against Puccinia recondita on Wheat The active compounds were formulated as a stock solution in acetone at a concentration of 10 000 ppm. The stock solution was diluted with water to the stated active compound concentration. 1 ml of the respective solution was pipetted to wheat seedlings grown in vermiculite (10 to 12 seedlings per pot). 7 days after the treatment the wheat plants were inoculated with a spore suspension of Puccinia recondita. After 7 days of incubation, the extent of infection was determined visually in %. The concentration is given in g of active compound (g a.i.) per 100 kg of seeds.

[2] = test system: Erysiphe graminis; assay: Activity against Erysiphe graminis on wheat (solution pipetted to seedlings in vermiculite); settings: inoculated 7 days after treatment, 7 days incubation, control 80
Description: as §1, with “Erysiphe graminis” for “Puccinia recondita”, “Erysiphe graminis.” for “Puccinia recondita.”

[3] = test system: Septoria tritici; assay: Activity against Septoria tritici on wheat (seedlings treated, detached leaf portions on agar inoculated); settings: wheat seedlings in vermiculite, leaf portions on agar inoculated 7 days after treatment, 18° C., 18 days incubation, control 100
Description: Activity Against Septoria tritici on Wheat The active compound Ia.1 was formulated as a stock solution in acetone at a concentration of 10 000 ppm. The stock solution was diluted with water to the stated active compound concentration. 1 ml of the respective solution was pipetted to wheat seedlings grown in vermiculite (10 to 12 seedlings per pot). 7 days after the treatment leaf portions of 5 cm length were placed in petri dishes filled with aqueous agar. The leaf portions were then inoculated with a spore suspension of Septoria tritici. The closed Petri dishes were incubated in a climatized test cabinet at 18° C. and 12 h light exposure per day. After 18 days of incubation, the extent of infection was determined visually in %. The concentration is given in g of active compound (g a.i.) per 100 kg of seeds.

[4] = test system: Puccinia recondita; assay: Activity against Puccinia recondita on wheat (seed treatment); settings: 250 g a.i./100 kg seeds, inoculated 14 days after sowing, 7 days incubation, control 90
Description: Activity Against Puccinia recondita on Wheat (Seed Treatment) 24 mg of the active compounds listed in table 2 were in each case dissolved in 1 ml of acetone to give a stock solution. The stock solution was diluted with acetone to give the test solution. Aliquots of 4.8 g of wheat seeds were placed in glass vials, where they were treated in an air stream with 1 ml of the test solution containing the active compound. In each case, 10 grains were sown in pots of 8 cm diameter. Untreated grains served as control. […] After 7 days of incubation, the extent of infection was determined visually in %. The concentration is given in g of active compound (g a.i.) per 100 kg of seeds.

[5] = test system: Septoria tritici; assay: Activity against Septoria tritici on wheat (seed treatment); settings: inoculated 14 days after sowing, 24 days incubation, control 85
Description: Activity Against Septoria tritici on Wheat (Seed Treatment) 9.6 mg of the active compound Ia.90 was dissolved in 1 ml of acetone to give a stock solution. The stock solution was diluted with acetone to give the test solution. Aliquots of 4.8 g of wheat seeds were placed in glass vials, where they were treated in an air stream with 0.5 ml of the test solution containing the active compound. In each case, 10 grains were sown in pots of 8 cm diameter. Untreated grains served as control. 14 days after sowing, the wheat plants were inoculated with a spore suspension of Septoria tritici. After 24 days of incubation, the extent of infection was determined visually in %. The concentration is given in g of active compound (g a.i.) per 100 kg of seeds.

[6] = test system: Phakopsora pachyrhizi; assay: Activity against Phakopsora pachyrhizi on soybean (seed treatment); settings: inoculated 14 days after sowing, 10 days incubation, control 87
Description: Activity Against Phakopsora pachyrhizi on soybean (Seed Treatment)
16 mg of the active compounds listed in table 3 were in each case dissolved in 1 ml of acetone to give a stock solution. The stock solution was diluted with acetone to give the test solution. Aliquots of 1.5 g of soybean seeds were placed in glass vials, where they were treated in an air stream with 0.6 ml of the test solution containing the active compound. In each case, 8 grains were sown in pots of 8 cm diameter. Untreated grains served as control. 14 days after sowing, the soybean plants were inoculated with a spore suspension of Phakopsora pachyrhizi. After 10 days of incubation, the extent of infection was determined visually in %. The concentration is given in g of active compound (g a.i.) per 100 kg of seeds.

[7] = test system: Septoria tritici; assay: Activity against Septoria tritici on wheat (solution pipetted to seedlings in vermiculite); settings: inoculated 7 days after treatment, 18 days incubation, control 60
Description: as §1, with “Against Septoria tritici” for “Against Puccinia recondita”, “active compound Ia.1 was” for “active compounds were”, “in dimethyl sulfoxide” for “in acetone”, “of Septoria tritici.” for “of Puccinia recondita.”, “After 18” for “After 7”

[8] = test system: Phakopsora pachyrhizi; assay: Activity against Phakopsora pachyrhizi on soybean (solution pipetted to seedlings in vermiculite); settings: 250 g a.i./100 kg, inoculated 7 days after treatment, 14 days incubation, control 88
Description: Activity Against Phakopsora pachyrhizi on Soybean
The active compounds were formulated as a stock solution in dimethylsulfoxide at a concentration of 10 000 ppm. The stock solution was diluted with water to the stated active compound concentration. 1 ml of the respective solution was pipetted to soybean seedlings grown in vermiculite (1 seedling per pot). 7 days after the treatment the soybean plants were inoculated with a spore suspension of Phakopsora pachyrhizi. After 14 days of incubation, the extent of infection was determined visually in %. The concentration is given in g of active compound (g a.i.) per 100 kg of seeds.

Row | SMILES | Infected leaf area ([1]; 125 g a.i./100 kg) [%] | Infected leaf area ([1]; 250 g a.i./100 kg) [%] | Infected leaf area ([2]; 125 g a.i./100 kg) [%] | Infected leaf area ([2]; 250 g a.i./100 kg) [%] | Infected leaf area ([3]; 125 g a.i./100 kg) [%] | Infected leaf area ([3]; 250 g a.i./100 kg) [%] | also measured
1 | Cn1cc(C(=O)Nc2ccccc2-c2cc(Cl)cc(Cl)c2)c(C(F)F)n1 [Ia.43] | 0 | 0 | 2 | 0 | – | – | –
2 | Cn1cc(C(=O)Nc2ccccc2-c2ccc(F)c(Cl)c2)c(C(F)F)n1 [Ia.44] | 0 | 0 | – | – | – | – | –
3 | Cn1cc(C(=O)Nc2ccccc2-c2ccc(F)c(F)c2)c(C(F)F)n1 [Ia.45] | 0 | 0 | – | – | – | – | –
4 | Cn1cc(C(=O)Nc2ccccc2-c2ccc(Cl)cc2F)c(C(F)(F)F)n1 [Ia.57] | 0 | 0 | – | – | – | – | –
5 | Cn1cc(C(=O)Nc2ccccc2-c2cccc(C(F)(F)F)c2)c(C(F)(F)F)n1 [Ia.64] | 0 | 0 | – | – | – | – | –
6 | Cc1cc(-c2ccccc2NC(=O)c2cn(C)nc2C(F)(F)F)c(F)cc1Cl [Ia.84] | 0 | 0 | 0 | 0 | 3 | 3 | –
7 | Cn1cc(C(=O)Nc2ccccc2-c2cc(F)c(F)c(F)c2)c(C(F)(F)F)n1 [Ia.85] | 0 | 0 | 0 | 0 | 0 | 0 | Infected leaf area [4]: 11%
8 | Cn1cc(C(=O)Nc2ccccc2-c2cc(F)c(F)c(F)c2)c(C(F)F)n1 [Ia.90] | 2 | 1 | 0 | 0 | 7 | 3 | Infected leaf area ([5]; 25 g a.i./100 kg seeds): 1%; Infected leaf area ([5]; 50 g a.i./100 kg seeds): 0%; Infected leaf area ([5]; 100 g a.i./100 kg seeds): 0%; Infected leaf area [4]: 0%; Infected leaf area ([6]; 125 g a.i./100 kg seeds): 1%; Infected leaf area ([6]; 250 g a.i./100 kg seeds): 2%; Infected leaf area ([7]; 125 g a.i./100 kg): 0%; Infected leaf area ([7]; 250 g a.i./100 kg): 0%; Infected leaf area [8]: 0%
9 | Cn1cc(C(=O)Nc2ccc(F)cc2-c2ccc(Cl)c(Cl)c2)c(C(F)F)n1 [Ia.110] | – | – | 0 | 0 | 3 | 7 | Infected leaf area [8]: 17%
10 | Cn1cc(C(=O)Nc2ccccc2-c2ccc(SC(F)(F)F)cc2)c(C(F)(F)F)n1 [Ia.173] | 0 | 0 | 0 | 0 | – | – | –
11 | Cn1cc(C(=O)Nc2ccccc2-c2cc(F)c(F)c(F)c2)c(C(F)Cl)n1 (stereo not shown) [Ia.211] | 0 | 0 | 0 | 0 | – | – | Infected leaf area [8]: 3%
12 | Cc1nn(C)c(Cl)c1C(=O)Nc1ccccc1-c1ccc(C(F)(F)F)cc1 [Ia.219] | 8 | 6 | – | – | – | – | –
13 | Cn1cc(C(=O)Nc2ccccc2-c2cccc(Cl)c2)c(CF)n1 [Ia.230] | 0 | 0 | – | – | – | – | –
14 | Cn1cc(C(=O)Nc2ccccc2-c2cccc(Cl)c2)c(C(F)F)n1 [Ia.231] | 0 | 0 | – | – | – | – | –
15 | Cn1cc(C(=O)Nc2ccccc2-c2ccccc2Cl)c(C(F)F)n1 [Ia.233] | 2 | 0 | – | – | 7 | 0 | –
16 | Cn1cc(C(=O)Nc2ccccc2-c2cc(F)cc(F)c2)c(C(F)F)n1 [Ia.244] | 0 | 0 | – | – | – | – | –
17 | Cn1cc(C(=O)Nc2ccccc2-c2cc(F)cc(F)c2)c(C(F)(F)F)n1 [Ia.245] | 0 | 0 | 0 | 0 | 0 | 0 | Infected leaf area [4]: 19%; Infected leaf area [8]: 0%
18 | Cn1cc(C(=O)Nc2c(F)cccc2-c2ccc(F)c(Cl)c2)c(C(F)F)n1 [Ia.249] | 0 | 0 | – | – | – | – | –
19 | Cn1cc(C(=O)Nc2ccccc2-c2cc(F)cc(Cl)c2)c(C(F)F)n1 [Ia.250] | 0 | 0 | – | – | – | – | –
20 | Cn1cc(C(=O)Nc2ccccc2-c2cc(F)cc(Cl)c2)c(C(F)(F)F)n1 [Ia.251] | 0 | 0 | – | – | – | – | –
21 | Cn1cc(C(=O)Nc2ccccc2-c2cc(Cl)ccc2Cl)c(C(F)(F)F)n1 [Ia.255] | 0 | 0 | 0 | 0 | 3 | 3 | Infected leaf area [4]: 38%
22 | Cn1cc(C(=O)Nc2ccccc2-c2ccc(SC(F)(F)F)cc2)c(C(F)F)n1 [Ia.313] | 0 | 0 | 0 | 0 | 0 | 0 | –
23 | O=C(Nc1ccccc1-c1ccc(Cl)cc1)c1cccnc1Cl [Id.1] | – | – | – | – | – | – | Infected leaf area [8]: 40%
24 | O=C(Nc1ccccc1-c1ccc(OC(F)(F)F)cc1)c1cccnc1Cl [Id.55] | 0 | 0 | – | – | – | – | –
25 | O=C(Nc1ccccc1-c1ccc(OC(F)(F)C(F)F)cc1)c1cccnc1Cl [Id.56] | 0 | 0 | – | – | – | – | –
26 | O=C(Nc1ccccc1-c1ccc(SC(F)(F)F)cc1)c1cccnc1Cl [Id.58] | 13 | 13 | – | – | – | – | –
